From PubChem BioAssay (NCI)
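Step 1: Grow cells in 96-well plates. Step 2: Expose to compound for 48 hours at 5 concentrations. Step 3: Interpolate endpoints linearly; if unreached, use highest concentration. TGI: total growth inhibition.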

Legend:
Assay in all cases: NCI-60 cell line screen, 48 h
HL-60(TB) leukemia = tested on: HL-60(TB) leukemia
786-0 renal = tested on: 786-0 renal
MCF7 breast = tested on: MCF7 breast
EKVX NSCLC = tested on: EKVX NSCLC
RPMI-8226 leukemia = tested on: RPMI-8226 leukemia
MDA-N = tested on: MDA-N
SF-539 CNS = tested on: SF-539 CNS
A549 NSCLC = tested on: A549 NSCLC
OVCAR-5 ovarian = tested on: OVCAR-5 ovarian
HT29 colon = tested on: HT29 colon
A498 renal = tested on: A498 renal
SNB-19 CNS = tested on: SNB-19 CNS

Structure (SMILES) | TGI (HL-60(TB) leukemia) [µM] | TGI (786-0 renal) [µM] | TGI (MCF7 breast) [µM] | TGI (EKVX NSCLC) [µM] | TGI (RPMI-8226 leukemia) [µM] | TGI (MDA-N) [µM] | TGI (SF-539 CNS) [µM] | TGI (A549 NSCLC) [µM] | TGI (OVCAR-5 ovarian) [µM] | TGI (HT29 colon) [µM] | TGI (A498 renal) [µM] | TGI (SNB-19 CNS) [µM]
CN1C(=O)C2C(=O)N(Cc3ccccc3)CC(=O)N2c2cccnc21 (stereo not given) | > 100 | > 100 | > 100 | > 100 | > 100 | > 100 | > 100 | > 100 | > 100 | > 100 | > 100 | > 100
O=C1/C(=C/c2ccccc2)N=C(c2ccccc2)N1n1c(-c2ccccc2)nc2ccccc2c1=O | > 100 | > 100 | > 100 | > 100 | > 100 | > 100 | > 100 | > 100 | > 100 | > 100 | > 100 | > 100
C=C1CC(COc2cc(=O)oc3ccccc23)(c2ccccc2)OC1=O (stereo not given) | 6.34 | 2.96 | 2.14 | 13.5 | 4.01 | 5.57 | 7.69 | 25.1 | 21.4 | 3.4 | 7.47 | 37.3
COc1ccccc1Nc1nc(N)nc(N)c1N=O | > 100 | > 100 | > 100 | > 100 | > 100 | > 100 | > 100 | > 100 | > 100 | > 100 | > 100 | > 100
CC(C)(C)C1=C(Br)C(Br)(C(C)(C)C)OP1(=O)c1ccccc1 (stereo not given) | > 100 | > 100 | > 100 | > 100 |  | > 100 | > 100 | > 100 | > 100 | > 100 | > 100 | > 100
O=C1CCC[C@@H]2NC[C@@H](c3ccc4c(c3)OCO4)[C@H]12 | > 25 | > 25 | > 25 | > 25 | > 25 | > 25 |  | > 25 | > 25 | > 25 | > 25 | > 25
CC(C)=CCOC(=O)C(C)=[N+]=[N-] | > 100 | > 100 | > 100 | > 100 | > 100 | > 100 |  |  | > 100 | > 100 | > 100 | > 100
CC1(C)OCC(COC(=O)C=[N+]=[N-])O1 (stereo not given) | > 100 | > 100 | > 100 | > 100 | > 100 | > 100 |  |  | > 100 | > 100 | > 100 | > 100
Cc1nc2c(sc(=S)n2-c2ccccc2)c2nc3ncccc3n12 | > 100 | > 100 | > 100 | > 100 | > 100 | > 100 |  | > 100 | > 100 | > 100 | > 100 | > 100
O=C(O)c1c2c(cc3c1CC1(Cc4ccccc4C1)C3)CCC2 | > 100 | > 100 | > 100 | > 100 | > 100 | > 100 | > 100 | > 100 | > 100 | > 100 | > 100 | 
Cc1ccc(C(=O)Nc2ccc(CP(=O)(O)O)cc2CP(=O)(O)O)cc1NC(=O)c1cccc(N)c1 | > 100 | > 100 | > 100 | > 100 | > 100 | > 100 | > 100 | > 100 | > 100 | > 100 | > 100 | 
COc1ccccc1N/C(=C\C(=O)C(=O)NC12CC3CC(CC(C3)C1)C2)c1ccccc1 | > 10 | > 10 | > 10 | > 10 | > 10 | > 10 | > 10 |  | > 10 | > 10 | > 10 | 
Cc1ccc([C@@H]2[C@@H](C(=O)c3ccccn3)[C@H](c3ccc(C)cc3)C[C@](O)(c3ccccn3)[C@H]2C(=O)c2ccccn2)cc1 | 6.92 | 9.15 | > 100 |  | > 92.6 | > 28.5 | > 100 | > 44.7 | > 85.8 | > 100 | > 41.6 | > 64.3
CCN(CC)CCc1c2c(nc3ccccc13)C(=O)c1cccnc1C2=O | 1.41 | 9.56 | 1.51 | 13.7 | 6.43 | 4.54 |  | 8.65 | 25.4 | 11.1 | 5.29 | 
O=C(Nc1ccc(Br)cc1)c1c(-c2ccccc2)c2ccc(O)cc2oc1=O | > 10 | > 10 | > 10 | > 10 | > 10 | > 10 | > 10 |  | > 10 | > 10 | > 10 | 
C[N+]1=C2[B-](C(C)(C)C)=[N+](C(C)(C)C)[B-]2(C(C)(C)C)[N+](C)=C2[B-](C(C)(C)C)=[N+](C(C)(C)C)[B-]21C(C)(C)C (stereo not given) | > 100 | > 100 | > 100 | > 100 | > 100 | > 100 |  | > 100 | > 100 | > 100 | > 100 | > 100
